Test results as given in the NIST ThermoML archive (doi:10.1016/j.jct.2013.08.034).
± gives the expanded uncertainty stated by the source.

Legend:
[1] = Liquid; for electrical conductivity / viscosity: 101 kPa; for electrical conductivity: Conductivity Meter Jenco 3107; for viscosity: Cone and plate viscometry; for mass density: 101.33 kPa, Vibrating tube method
[2] = xn = mol fraction of the nth substance listed; conditions: 101 kPa, Liquid, x1 = 1; for electrical conductivity: Conductivity Meter Jenco 3107; for viscosity: Cone and plate viscometry

| Compound | viscosity ([1]; 293.15 K) | mass density ([1]; 293.15 K) | viscosity ([1]; 298.15 K) | mass density ([1]; 298.15 K) | viscosity ([1]; 303.15 K) | mass density ([1]; 303.15 K) | viscosity ([1]; 308.15 K) | mass density ([1]; 308.15 K) | viscosity ([1]; 313.15 K) | mass density ([1]; 313.15 K) | viscosity ([1]; 318.15 K) | mass density ([1]; 318.15 K) | viscosity ([1]; 323.15 K) | mass density ([1]; 323.15 K) | viscosity ([1]; 328.15 K) | viscosity ([1]; 333.15 K) | also measured |
| --- | --- | --- | --- | --- | --- | --- | --- | --- | --- | --- | --- | --- | --- | --- | --- | --- | --- |
| CCCC[n+]1ccn(C)c1.O=S(=O)([N-]S(=O)(=O)C(F)(F)F)C(F)(F)F | 62.08 ± 6.2 mPa·s | 1439.27 ± 0.62 kg/m3 | 50.05 ± 5 mPa·s | 1434.3 ± 0.61 kg/m3 | 41.24 ± 4.2 mPa·s | 1429.4 ± 0.61 kg/m3 | 33.65 ± 3.4 mPa·s | 1424.57 ± 0.6 kg/m3 | 28.28 ± 2.8 mPa·s | 1419.61 ± 0.6 kg/m3 | 23.91 ± 2.4 mPa·s | 1414.67 ± 0.6 kg/m3 | 20.64 ± 2.1 mPa·s | 1409.65 ± 0.59 kg/m3 | 17.9 ± 1.8 mPa·s | 15.51 ± 1.6 mPa·s | electrical conductivity ([1]; 293.15 K): 0.337 ± 0.01 S/m; electrical conductivity ([1]; 298.15 K): 0.4 ± 0.012 S/m; electrical conductivity ([1]; 303.15 K): 0.472 ± 0.014 S/m; electrical conductivity ([1]; 308.15 K): 0.552 ± 0.017 S/m; electrical conductivity ([1]; 313.15 K): 0.64 ± 0.019 S/m; electrical conductivity ([1]; 318.15 K): 0.733 ± 0.022 S/m; electrical conductivity ([1]; 323.15 K): 0.835 ± 0.025 S/m; electrical conductivity ([1]; 328.15 K): 0.944 ± 0.028 S/m |
| CC1COC(=O)O1 (configuration not stated) [4-methyl-1,3-dioxolan-2-one] | 2.86 ± 0.29 mPa·s | 1204.81 ± 0.41 kg/m3 | 2.65 ± 0.27 mPa·s | 1199.02 ± 0.4 kg/m3 | 2.44 ± 0.24 mPa·s | 1194 ± 0.4 kg/m3 | 2.23 ± 0.22 mPa·s | 1188.57 ± 0.39 kg/m3 | 2.05 ± 0.21 mPa·s | 1183.11 ± 0.39 kg/m3 | 1.9 ± 0.19 mPa·s | 1177.55 ± 0.38 kg/m3 | 1.78 ± 0.18 mPa·s | 1171.96 ± 0.38 kg/m3 | 1.63 ± 0.16 mPa·s | 1.54 ± 0.15 mPa·s |  |
| CCCC[n+]1ccn(C)c1.O=S(=O)([N-]S(=O)(=O)C(F)(F)F)C(F)(F)F + CC1COC(=O)O1 |  |  |  |  |  |  |  |  |  |  |  |  |  |  |  |  | electrical conductivity ([2]; 293.15 K): 0.337 ± 0.01 S/m; viscosity ([2]; 293.15 K): 62.08 ± 6.2 mPa·s; electrical conductivity ([2]; 298.15 K): 0.4 ± 0.012 S/m; viscosity ([2]; 298.15 K): 50.05 ± 5 mPa·s; electrical conductivity ([2]; 303.15 K): 0.472 ± 0.014 S/m; viscosity ([2]; 303.15 K): 41.24 ± 4.2 mPa·s; electrical conductivity ([2]; 308.15 K): 0.552 ± 0.017 S/m; viscosity ([2]; 308.15 K): 33.65 ± 3.4 mPa·s; electrical conductivity ([2]; 313.15 K): 0.64 ± 0.019 S/m; viscosity ([2]; 313.15 K): 28.28 ± 2.8 mPa·s; electrical conductivity ([2]; 318.15 K): 0.733 ± 0.022 S/m; viscosity ([2]; 318.15 K): 23.91 ± 2.4 mPa·s; electrical conductivity ([2]; 323.15 K): 0.835 ± 0.025 S/m; viscosity ([2]; 323.15 K): 20.64 ± 2.1 mPa·s; electrical conductivity ([2]; 328.15 K): 0.944 ± 0.028 S/m; viscosity ([2]; 328.15 K): 17.9 ± 1.8 mPa·s; viscosity ([2]; 333.15 K): 15.51 ± 1.6 mPa·s |
